Assay results reported in ChEMBL document CHEMBL1165918, “Synthesis and biological activity of N-aroyl-tetrahydro-gamma-carbolines” (Bioorg Med Chem, 2010).

Key:
[1] = molecular target: T1, Polyunsaturated fatty acid 5-lipoxygenase (Homo sapiens, UniProt P09917); test: Inhibition of 5-lipoxygenase in human whole blood; assay type: tissue-based
T1 sequence (P09917 whole entry): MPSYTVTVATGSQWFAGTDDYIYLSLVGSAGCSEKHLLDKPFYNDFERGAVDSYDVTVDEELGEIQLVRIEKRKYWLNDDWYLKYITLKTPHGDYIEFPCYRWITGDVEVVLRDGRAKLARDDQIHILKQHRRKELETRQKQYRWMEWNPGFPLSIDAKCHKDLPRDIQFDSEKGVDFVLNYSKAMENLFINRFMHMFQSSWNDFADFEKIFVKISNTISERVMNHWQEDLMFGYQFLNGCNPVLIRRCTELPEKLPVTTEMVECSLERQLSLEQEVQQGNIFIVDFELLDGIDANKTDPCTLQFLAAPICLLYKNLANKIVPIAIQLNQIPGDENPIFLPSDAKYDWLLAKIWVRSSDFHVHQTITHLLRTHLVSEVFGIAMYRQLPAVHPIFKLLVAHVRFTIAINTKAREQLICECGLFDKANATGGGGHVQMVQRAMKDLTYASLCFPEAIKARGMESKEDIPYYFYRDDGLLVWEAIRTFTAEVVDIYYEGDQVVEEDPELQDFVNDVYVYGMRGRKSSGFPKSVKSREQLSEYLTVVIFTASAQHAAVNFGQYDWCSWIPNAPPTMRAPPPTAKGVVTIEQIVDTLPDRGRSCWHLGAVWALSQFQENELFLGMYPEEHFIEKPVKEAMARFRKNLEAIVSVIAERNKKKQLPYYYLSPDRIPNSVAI

[2] = molecular target: T2, Prostaglandin G/H synthase 1 (Homo sapiens, UniProt P23219); test: Inhibition of COX1 in human whole blood; assay type: tissue-based
T2 sequence (P23219 whole entry): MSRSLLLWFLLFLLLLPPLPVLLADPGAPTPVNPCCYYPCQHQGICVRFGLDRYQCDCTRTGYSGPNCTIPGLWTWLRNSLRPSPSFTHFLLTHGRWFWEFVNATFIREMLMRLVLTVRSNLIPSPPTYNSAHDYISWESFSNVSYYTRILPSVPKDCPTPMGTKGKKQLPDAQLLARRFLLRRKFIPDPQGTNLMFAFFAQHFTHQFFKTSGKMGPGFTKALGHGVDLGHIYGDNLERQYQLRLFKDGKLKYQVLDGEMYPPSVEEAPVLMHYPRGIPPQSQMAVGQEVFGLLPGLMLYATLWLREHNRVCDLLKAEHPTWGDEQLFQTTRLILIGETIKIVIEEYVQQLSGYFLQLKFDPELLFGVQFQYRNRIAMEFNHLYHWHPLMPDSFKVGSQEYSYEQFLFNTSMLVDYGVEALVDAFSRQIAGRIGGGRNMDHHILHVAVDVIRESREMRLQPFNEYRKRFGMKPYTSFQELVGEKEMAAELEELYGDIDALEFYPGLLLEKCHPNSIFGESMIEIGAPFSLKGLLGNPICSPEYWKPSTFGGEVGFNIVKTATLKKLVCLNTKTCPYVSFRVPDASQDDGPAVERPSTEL

[3] = molecular target: T2, Prostaglandin G/H synthase 1; assay type: tissue-based, Blood
Description: Inhibition of COX1 in human whole blood assessed as inhibition of 12-hydroxyheptadecatrienoic acid production by HPLC method

L1210 [4] = test: Growth inhibition of mouse L1210 cells at 10 uM after 72 hrs by MTT assay; assay type: functional; settings: L1210, 72 h, read-out: GI
PC-3 [5] = test: Growth inhibition of human PC3 cells at 10 uM after 72 hrs by MTT assay; assay type: functional; settings: PC-3, 72 h, read-out: GI
[6] = molecular target: T1, Polyunsaturated fatty acid 5-lipoxygenase
[7] = molecular target: T1, Polyunsaturated fatty acid 5-lipoxygenase; remark: listed apart in the source
MCF7 [8] = test: Growth inhibition of human MCF7 cells at 10 uM after 72 hrs by MTT assay; assay type: functional; settings: MCF7, 72 h, read-out: GI
MCF7 [9] = test: cells; settings: Homo sapiens, MCF7, 72 h
Description: Cytotoxicity against human MCF7 cells after 72 hrs by MTT assay

L1210 [10] = test: Cytotoxicity against mouse L1210 cells after 72 hrs by MTT assay; assay type: functional, cell-based; settings: L1210, 72 h
PC-3 [11] = test: cells; settings: Homo sapiens, PC-3, 72 h
Description: Cytotoxicity against human PC3 cells after 72 hrs by MTT assay

[12] = molecular target: T2, Prostaglandin G/H synthase 1; test: Inhibition of COX1 in human whole blood assessed as inhibition of 12-hydroxyheptadecatrienoic acid production at 10 uM by HPLC method; assay type: tissue-based
Homo sapiens = species: Homo sapiens; test: Selectivity ratio of IC50 for COX2 in human whole blood to IC50 for COX1 in human whole blood; assay type: tissue-based
[13] = molecular target: T3, Prostaglandin G/H synthase 2 (Homo sapiens) (UniProt P35354); test: Inhibition of COX2 in human whole blood assessed as inhibition of 12-hydroxyheptadecatrienoic acid production at 10 uM by HPLC method; assay type: tissue-based
T3 sequence (whole entry): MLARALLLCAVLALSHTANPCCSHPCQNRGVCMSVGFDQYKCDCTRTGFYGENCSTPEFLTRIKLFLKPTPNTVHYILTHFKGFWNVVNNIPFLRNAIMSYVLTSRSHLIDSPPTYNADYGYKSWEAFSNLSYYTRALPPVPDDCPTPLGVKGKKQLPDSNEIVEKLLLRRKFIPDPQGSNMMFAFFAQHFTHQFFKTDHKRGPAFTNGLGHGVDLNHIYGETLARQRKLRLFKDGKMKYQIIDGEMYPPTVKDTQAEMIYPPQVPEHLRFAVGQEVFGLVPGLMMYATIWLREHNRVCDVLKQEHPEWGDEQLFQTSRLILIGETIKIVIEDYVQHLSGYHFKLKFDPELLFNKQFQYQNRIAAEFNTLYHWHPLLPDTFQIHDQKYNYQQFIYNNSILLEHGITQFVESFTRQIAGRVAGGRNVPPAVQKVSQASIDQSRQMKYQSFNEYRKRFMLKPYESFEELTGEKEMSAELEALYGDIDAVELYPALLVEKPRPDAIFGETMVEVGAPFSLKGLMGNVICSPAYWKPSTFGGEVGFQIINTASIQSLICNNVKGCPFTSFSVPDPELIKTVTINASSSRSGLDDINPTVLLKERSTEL

[14] = molecular target: T4, Polyunsaturated fatty acid 5-lipoxygenase (Homo sapiens) (UniProt P09917); assay type: tissue-based; settings: Blood, 10 uM
T4 sequence (whole entry): T1 sequence (P09917 whole entry)

Row | Structure (SMILES) | IC50 [3] | inhibition of growth at 10 µM (L1210 [4]) | inhibition of growth at 10 µM (PC-3 [5]) | IC50 [6] | IC50 [7] | inhibition of growth at 10 µM (MCF7 [8]) | other results
1 | COC1(c2cc(F)cc(OCc3cc(-c4ccccc4)n(-c4ccc(S(C)(=O)=O)cc4)n3)c2)CCOCC1 |  |  |  |  |  |  | IC50 [1]: 0.2 µM; IC50 [2]: > 10 µM
2 | COc1ccc2c(c1)c1c(n2C(=O)c2ccc(Br)cc2)CCN(CCCOc2cc(F)cc(C3(OC)CCOCC3)c2)C1 | 16.5 µM | 42% | 0% | 47.4 µM | 62 µM | 39% | 
3 | Cc1ccc(-c2cc(C(F)(F)F)nn2-c2ccc(S(N)(=O)=O)cc2)cc1 [CELECOXIB] |  |  |  |  |  |  | IC50 (MCF7 [9]): 50.2 µM; IC50 (L1210 [10]): 44 µM
4 | COc1ccc2c(c1)c1c(n2C(=O)c2ccc(Cl)cc2)CCN(CCCOc2cc(F)cc(C3(OC)CCOCC3)c2)C1 | 7.4 µM |  | 9% | 59.3 µM | 119 µM |  | IC50 (MCF7 [9]): 8 µM; IC50 (L1210 [10]): 8 µM
5 | COc1ccc2c(c1)c1c(n2C(=O)c2cccc(F)c2)CCN(CCCOc2cc(F)cc(C3(OC)CCOCC3)c2)C1 | 7.8 µM | 40% | 44% | 38 µM | 40.5 µM | 8% | 
6 | COc1ccc2c(c1)c1c(n2Cc2ccc(S(C)(=O)=O)cc2)CCN(CCCOc2cc(F)cc(C3(OC)CCOCC3)c2)C1 |  |  |  |  |  | 27% | IC50 (PC-3 [11]): 8 µM; IC50 (L1210 [10]): 5 µM
7 | COc1ccc2c(c1)c1c(n2C(=O)c2ccccc2)CCN(CCCOc2cc(F)cc(C3(OC)CCOCC3)c2)C1 |  | 20% | 20% | 66.4 µM | 108 µM | 18% | inhibition [12]: 84.3%
8 | COC(=O)c1cc2cc(S(C)(=O)=O)ccc2n1Cc1ccc(Cl)cc1 |  |  |  |  |  |  | Ratio IC50 (Homo sapiens): < 0.05; IC50 [2]: > 10 µM
9 | COc1ccc2c(c1)c1c(n2C(=O)c2ccccc2)CCNC1 | 6 µM | 32% | 0% |  |  | 0% | 
10 | CS(=O)(=O)c1ccc2c(c1)c1c(n2C(=O)c2ccccc2)CCNC1 | 24.4 µM | 0% | 7% |  |  | 0% | 
11 | COc1ccc2c(c1)c1c(n2C(=O)c2ccc(F)cc2)CCN(CCCOc2cc(F)cc(C3(OC)CCOCC3)c2)C1 |  | 44% | 0% | 58 µM | 59.9 µM | 37% | inhibition [12]: 71.6%
12 | COC1(c2cc(F)cc(OCCCN3CCc4c(c5cc(S(C)(=O)=O)ccc5n4C(=O)c4ccccc4)C3)c2)CCOCC1 | 24 µM | 38% | 37% |  |  | 15% | inhibition [13]: 8.4%
13 | COc1ccc2c(c1)c1c(n2C(=O)c2ccccc2F)CCN(CCCOc2cc(F)cc(C3(OC)CCOCC3)c2)C1 |  | 45% | 15% | 39.3 µM | > 10 µM | 21% | inhibition [12]: 83.5%
14 | COc1ccc2c(c1)c1c(n2C(=O)c2c(Cl)cc(Cl)cc2Cl)CCN(CCCOc2cc(F)cc(C3(OC)CCOCC3)c2)C1 | 36.7 µM | 11% | 0% | 45.4 µM | 55 µM | 36% | 
15 | COC1(c2cc(F)cc(OCCCN3CCc4c(c5cc(S(C)(=O)=O)ccc5n4CCCOc4cc(F)cc(C5(OC)CCOCC5)c4)C3)c2)CCOCC1 |  |  |  |  |  | 36% | IC50 (L1210 [10]): 3 µM
16 | COC1(c2cc(F)cc(OCCCN3CCc4c(c5ccccc5n4C(=O)c4ccccc4)C3)c2)CCOCC1 | 18.2 µM | 24% | 6% | 92.9 µM | 206 µM | 30% | 
17 | COC1(c2cc(F)cc(OCCCN3CCc4c(c5cc(F)ccc5n4Cc4ccc(S(C)(=O)=O)cc4)C3)c2)CCOCC1 | 180 µM | 38% |  | 29.5 µM | 24.6 µM | 34% | IC50 (PC-3 [11]): 8 µM
18 | COc1ccc2c(c1)c1c(n2C(=O)c2ccc(S(=O)(=O)/N=C/N(C)C)cc2)CCN(CCCOc2cc(F)cc(C3(OC)CCOCC3)c2)C1 |  |  | 42% |  | > 10 µM | 21% | inhibition [14]: 81.4%; IC50 (L1210 [10]): 6 µM
